These results are taken from paper PMC2637266, “Quantification of gamma-secretase modulation differentiates inhibitor compound selectivity between two substrates Notch and amyloid precursor protein” (Molecular Brain, 2008).

Values joined by “and” are separate entries in the source; they are usually repeats but may differ in a detail not shown here. Equal values may be shown once. Read-outs that look alike come from different tables or passages of the source.

The test system of one test is zebrafish embryos. Also on record: method as in PMID 12101103. Conditions: treatment at late blastula stage; cited from earlier work.
Test [1] concerns the target T1, γ-secretase cleavage of NotchΔE (Homo sapiens, UniProt P49768).
T1 construct: endogenous in cells; host or cells: HEK293 stably expressing Swedish mutant human APP695, transiently transfected with NotchΔE
Description: NICD generation in NotchΔE transfected HEK293 cells, Western blot. Type of test: cell-based. Conditions: for NICD generation in cultured cells: high doses. On the procedure:
(§1) Since many compounds could behave differently in vitro versus in culture cells, cpd E and DAPT were tested in cultured cells (Fig. 2). HEK293 cells stably expressing Swedish mutant APP were transiently transfected with NotchΔE, a truncated Notch construct that is readily cleaved by the γ-secretase to generate NICD for downstream signaling transduction. NotchΔE expressing cells were treated with increasing concentrations of DAPT or cpd E. Cell lysates were subjected to WB for measuring the generation of NICD (Fig. 2A), and conditioned media were collected for Aβ measurement by ELISA (Fig. 2B,C).
(§2) Figure 2 Generation of NICD and Aβ from NotchΔE and APP expressing cells. A. Twenty four hrs after the construct carrying NotchΔE was transfected into APP expressing HEK293 cells, cells were treated with DAPT or cpd E for 8 hr and lysed for WB with antibody 1744 to specifically detect the N-terminus of NICD. Bottom panel, the antibody against α-tubulin was applied to normalize the amounts of lysates used for WB. B. Levels of NICD determined by WB were quantified by densitometry (dotted line). Levels of Aβ generated from the γ-secretase cleavage of APP in the presence of DAPT were determined by ELISA. […] C. NICD (dotted line) and Aβ (solid line) production from cpd E-treated cells were compared. […] D. A luciferase reporter construct driven by HES1 promoter was transfected into HEK293 cells followed by treatment with cpd E or DAPT.
The cDNA construct NotchΔE has a c-myc tag and is a truncated Notch molecule that is an immediate substrate for γ-secretase cleavage to generate Notch intracellular domain (NICD). Two chimeric cDNA constructs express […] the juxtamembrane portion of the APP ectodomain (the α-secretase cleavage region) replaced by the corresponding sequence in Notch (APP-α-NOTCH). These cDNA constructs were provided by Dr. Dennis Selkoe. Hes-1 reporter construct (Hes-Luc) was generated by insertion three of Su(H) binding sequence
Human embryonic kidney (HEK) 293 cells stably expressing Swedish mutant human APP695 were transfected with different cDNA constructs and maintained in 200 μg/ml G418 (Invitrogen, Carlsbad, CA). Transfected cells were treated with two γ-secretase inhibitors cpd E or DAPT for 8 hr. Conditioned media were collected for ELISA, and cell lysates were analyzed by Western blot as described. Cells co-transfected with Hes-Luc and NotchΔE were treated with compounds followed by the measurement of luciferase activity (Luciferase Assay System, Promega, Madison, WI).

Test [2] concerns the target T2, γ-secretase cleavage of APP (Homo sapiens, UniProt P49768).
T2 construct: endogenous in cells; host or cells: HEK293 stably expressing Swedish mutant human APP695, transiently transfected with NotchΔE
Description: Aβ in conditioned media of APP expressing HEK293 cells transfected with NotchΔE, ELISA. Type of test: cell-based. To be noted: for IC50: HEK293, 8 hr treatment; for Aβ levels in cultured cells: high doses. As to the method:
as §1, §2
Sandwich ELISAs for Aβ were performed as described. The capture antibodies, 2G3 (to Aβ residues 33–40) and 4G8 (to Aβ residues 17–24), were used for Aβ40 and Aβ total species, respectively. The detecting antibodies were biotinylated 82E1 (to Aβ residues 1–16) for Aβ1–40/total or biotinylated 266 for Aβx-40 species. The use of mid-region and C-terminal capturing antibodies and N-terminal detecting antibody for chimeric "Notch-Aβ-like" peptide (Nβ*) has been documented. The combination of several capture/detecting antibodies are use to measure Aβ and Nβ* derived from different precursors. The capture antibody 2G3 and detecting antibody 82E1 were used for measuring Nβ* from APP-α-Notch expressing cells. Since the APP-α-NOTCH is the fusion protein with its juxtamembrane portion of the APP ectodomain (the α-secretase cleavage region) replaced by the corresponding sequence in Notch, the epitopes in APP sequence could still be recognized by 2G3 (C-terminus) and 82E1 (N-terminus). […]
Human embryonic kidney (HEK) 293 cells stably expressing Swedish mutant human APP695 were transfected with different cDNA constructs and maintained in 200 μg/ml G418 (Invitrogen, Carlsbad, CA). […] Conditioned media were collected for ELISA, and cell lysates were analyzed by Western blot as described. […]
(ELISA stands for enzyme-linked immunosorbent assay.)

The target of another test is γ-secretase. To be noted: read-out: IC50 for de novo Aβ and AICD generation in vitro; cited from earlier work.
Test [3] deals with T3, γ-secretase cleavage of chimeric APP-m-NOTCH (Homo sapiens, UniProt P49768).
T3 construct: endogenous in cells; host or cells: HEK293 transiently transfected with APP-m-Notch
Description: Nβ* ELISA from HEK293 cells expressing APP-m-Notch. Type of test: cell-based. An excerpt: (§3) Two cDNA constructs expressing chimeric APP and Notch were previously reported to generate chimeric "Notch-Aβ-like" (Nβ*) peptide. One construct has its transmembrane domain (TMD) replaced by the Notch TMD (APP-m-NOTCH) and the other with the juxtamembrane portion of the APP ectodomain (the α-secretase cleavage region) replaced by the corresponding sequence in Notch (APP-α-NOTCH). Taking advantage of different combinations of ELISA antibodies (see Methods), effects of cpd E on the generation of Aβ and Nβ* peptides from these chimeric APP-Notch substrates were quantified by ELISA.
(§4) Individual construct APP, APP-α-Notch or APP-m-Notch was transiently transfected into HEK293 cells. These chimeric protein expressing cells were treated with cpd E, and the levels of Aβ and Nβ* were measured by ELISA. […] Similar results were obtained when m-Notch was expressed in HEK293 cells. At least two magnitude of difference was observed, with EC50 for cpd E was […], compared to EC50 for Nβ* at ~1 nM (Fig. 3B).
(§5) Figure 3 Generation of Aβ and Nβ* from chimeric APP-Notch expressing cells. […] Levels of Nβ* in the media from cells expressing APP-α-Notch (dotted line) and levels of Aβ from APP expressing cells (solid line) were determined by ELISA. […] Levels of Aβ (solid line) and Nβ* (dotted line) were determined by ELISA. […]

Test [4] addresses T4, γ-secretase cleavage of chimeric APP-α-NOTCH (Homo sapiens, UniProt P49768).
T4 construct: endogenous in cells; host or cells: HEK293 transiently transfected with APP-α-Notch
Nature of the test: Nβ* ELISA from HEK293 cells expressing APP-α-Notch. Type of test: cell-based.
Description: as §3, §4, §5

Take `C[C@H](NC(=O)Cc1cc(F)cc(F)c1)C(=O)N[C@H](C(=O)OC(C)(C)C)c1ccccc1` [DAPT, N-[N-(3,5-Difluorophenacetyl-L-alanyl)]-S-phenylglycine t-Butyl Ester]: the “zebrafish somitogenesis and neurogenesis” value in the test with zebrafish embryos was “caused defects in somitogenesis and neurogenesis”. Further, the “Notch cleavage reduced to, cell culture based assay” value in test [1] (1 μM or higher) was “about 50%”. Besides, the EC50 in test [1] (Fig. 2B and 2C, read-out: EC50 to reduce NICD generation in cultured cells) was roughly 1000 nM. In test [1], the “NICD generation in cultured cells” value is given as “could not completely eliminate NICD generation”. Besides, the IC50 was roughly 500 nM in test [2] (read-out: concentration inhibiting levels of Aβ to 50% in cultured cells) and 10 to 100 nM at γ-secretase. For the same compound, the “Aβ levels in cultured cells” value in test [2] is “efficiently reduced to almost undetectable levels”.
`C[C@H](NC(=O)Cc1cc(F)cc(F)c1)C(=O)N[C@H]1N=C(c2ccccc2)c2ccccc2N(C)C1=O` [cpd E, (S,S)-2-[2-(3,5-Difluorophenyl)-acetylamino]-N-(1-methyl-2-oxo-5-phenyl-2,3-dihydro-1H-benzo [e] [1,4]diazepin-3-yl)-propionamide]: the EC50 is roughly 1 nM in test [3]; roughly 8 nM in test [4]; less than 100 nM in test [1] (EC50 for the inhibition of NICD generation in cultured cells, Fig. 2); 10 nM in test [1] (EC50 to reduce NICD generation in cultured cells, Fig. 2B and 2C). In addition, the “NICD generation in cultured cells” value in test [1] is listed as “could not completely eliminate NICD generation”. Besides, the IC50 in test [2] (IC50 for Aβ generation (levels of Aβ reduced to 50%) in cultured cells) is ~8 nM and 5 nM. Further, the “Aβ levels in cultured cells” value in test [2] is on record as “efficiently reduced to almost undetectable levels”.
